Assay results published in patent US12139499B2, “Heteroaryl compounds for treating Huntington's disease” (PTC THERAPEUTICS, INC., priority 2018, dated 2024).

system: Endogenous Huntingtin Protein; experiment: Endogenous Huntingtin Protein Assay (ELISA-based MSD electrochemiluminescence); assay type: cell-based; details: Table 1
Procedure: Compounds of Formula (I) or Formula (II) were tested using the Meso Scale Discovery (MSD) Assay provided in International Application No. PCT/US2016/066042, filed on Dec. 11, 2016 and claiming priority to U.S. Provisional Application 62/265,652 filed on Dec. 10, 2015, the entire contents of which are incorporated herein by reference.
The Endogenous Huntingtin Protein assay used in Example 1 was developed using the ELISA-based MSD electrochemiluminescence assay platform.
Endogenous Huntingtin Protein Assay
Meso Scale Discovery (MSD) 96-well or 384-well plates were coated overnight at 4° C. with MW1 (expanded polyglutamine) or MAB2166 monoclonal antibody (for capture) at a concentration of 1 μg/mL in PBS (30 μL per well). Plates were then washed three times with 300 μL wash buffer (0.05% Tween-20 in PBS) and blocked (100 μL blocking buffer; 5% BSA in PBS) for 4-5 hours at room temperature with rotational shaking and then washed three times with wash buffer.
Samples (25 μL) were transferred to the antibody-coated MSD plate and incubated overnight at 4° C. After removal of the lysates, the plate was washed three times with wash buffer, and 25 μL of #5656S (Cell signaling; rabbit monoclonal) secondary antibody (diluted to 0.25 μg/mL in 0.05% Tween-20 in blocking buffer) was added to each well and incubated with shaking for 1 Hour at room temperature. Following incubation with the secondary antibody, the wells were rinsed with wash buffer after which 25 μL of goat anti-rabbit SULFO TAG secondary detection antibody (required aspect of the MSD system) (diluted to 0.25 μg/mL in 0.05% Tween-20 in blocking buffer) was added to each well and incubated with shaking for 1 hour at room temperature. After rinsing three times with wash buffer, 150 μL of read buffer T with surfactant (MSD) were added to each empty well, and the plate was imaged on a SI 6000 imager (MSD) according to manufacturers' instructions provided for 96- or 384-well plates.

Question: How did the IC50 turn out when `Cc1cn2nc(-c3cc(F)c4nc(C56CCN(CC5)CC6)sc4c3)cc(C)c2n1` [Compound 194, 6-[2-(1-azabicyclo[2.2.2]oct-4-yl)-4-fluoro-1,3-benzothiazol-6-yl]-2,8-dimethylimidazo[1,2-b]pyridazine] was run?
Answer: The IC50 was at most 100 nM.

Question: `Cc1cn2cc(-c3cc4sc(OC5CC6CCC(C5)N6)nc4cn3)cc(C#N)c2n1` (stereo not drawn) [Compound 223, 6-{2-[(3-exo)-8-azabicyclo[3.2.1]oct-3-yloxy][1,3]thiazolo[4,5-c]pyridin-6-yl}-2-methylimidazo[1,2-a]pyridine-8-carbonitrile] was tested. Which IC50 did it give?
Answer: Its IC50 is 100 to 500 nM.

Question: `COc1cc(-c2cc(F)c3nc(C4=CCNCC4)sc3c2)nn2cc(C)nc12` [Compound 145, 6-[4-fluoro-2-(1,2,3,6-tetrahydropyridin-4-yl)-1,3-benzothiazol-6-yl]-8-methoxy-2-methylimidazo[1,2-b]pyridazine] was tested. Which IC50 did it give?
Answer: The IC50 was at most 100 nM.

Question: For `Cn1cc2cc(-c3cc(C#N)c4nc(C5=CCNCC5)sc4c3)cc(C#N)c2n1` [Compound 172, 6-(7-cyano-2-methyl-2H-indazol-5-yl)-2-(1,2,3,6-tetrahydropyridin-4-yl)-1,3-benzothiazole-4-carbonitrile], which IC50 is on record?
Answer: The IC50 was 1000 to 3000 nM.

Question: `CN(c1nc2ccc(-c3ccc4nn(C)cc4c3)cc2s1)C1CC(C)(C)NC(C)(C)C1` [Compound 20, N-methyl-6-(2-methyl-2H-indazol-5-yl)-N-(2,2,6,6-tetramethylpiperidin-4-yl)-1,3-benzothiazol-2-amine] was tested. Which IC50 did it give?
Answer: Its IC50 is at most 100 nM.

Question: With `Cc1cn2nc(-c3cc(F)c4nc(N(C)C5CCNCC5)sc4c3)cc(C#N)c2n1` [Compound 231, 6-{4-fluoro-2-[methyl(piperidin-4-yl)amino]-1,3-benzothiazol-6-yl}-2-methylimidazo[1,2-b]pyridazine-8-carbonitrile] as the molecule, how does the IC50 read?
Answer: The IC50 was at most 100 nM.

Question: For `Cc1cn2nc(-c3cc(F)c4nc(C5CCNCC5)sc4c3)cc(O)c2n1` [Compound 189, 6-[4-fluoro-2-(piperidin-4-yl)-1,3-benzothiazol-6-yl]-2-methylimidazo[1,2-b]pyridazin-8-ol], which IC50 is on record?
Answer: The IC50 was 100 to 500 nM.

Question: How did the IC50 turn out when `CCN1CCC(c2nc3c(F)cc(-c4ccc5nc(C)cn5n4)cc3s2)CC1` [Compound 106, 6-[2-(1-ethylpiperidin-4-yl)-4-fluoro-1,3-benzothiazol-6-yl]-2-methylimidazo[1,2-b]pyridazine] was run?
Answer: The IC50 was at most 100 nM.

Question: For `Cc1cn2cc(-c3cc4sc(OC5CC(C)(C)NC(C)(C)C5)nc4cn3)cc(F)c2n1` [Compound 310, 6-(8-fluoro-2-methylimidazo[1,2-a]pyridin-6-yl)-2-[(2,2,6,6-tetramethylpiperidin-4-yl)oxy][1,3]thiazolo[4,5-c]pyridine], which IC50 is on record?
Answer: Its IC50 is at most 100 nM.

Question: `C[C@@H]1C[C@@H](N(C)c2nc3nnc(-c4ccc(-c5cn[nH]c5)cc4O)cc3s2)CCN1` [Compound 396, 2-(6-{methyl[(2R,4S)-2-methylpiperidin-4-yl]amino][1,3]thiazolo[4,5-c]pyridazin-3-yl)-5-(1H-pyrazol-4-yl)phenol] was tested. Which IC50 did it give?
Answer: The IC50 was at most 100 nM.

Question: For `Cc1cc(-c2cnc3nc(N(C)C4CC(C)(C)NC(C)(C)C4)sc3c2)cc2cn(C)nc12` [Compound 17, 6-(2,7-dimethyl-2H-indazol-5-yl)-N-methyl-N-(2,2,6,6-tetramethylpiperidin-4-yl)[1,3]thiazolo[4,5-b]pyridin-2-amine], which IC50 is on record?
Answer: The IC50 was 100 to 500 nM.

Question: For `CN1CC=C(c2ccc3nc(-c4ccc5nn(C)cc5c4)sc3c2)CC1` [Compound 6, 2-(2-methyl-2H-indazol-5-yl)-6-(1-methyl-1,2,3,6-tetrahydropyridin-4-yl)-1,3-benzothiazole], which IC50 is on record?
Answer: The IC50 was 1000 to 3000 nM.

Question: For `Cn1cc2cc(-c3cc4sc(NC5CC6CCC(C5)N6)nc4cn3)cc(F)c2n1` (stereo not drawn) [Compound 211, N-[(3-exo)-8-azabicyclo[3.2.1]oct-3-yl]-6-(7-fluoro-2-methyl-2H-indazol-5-yl)[1,3]thiazolo[4,5-c]pyridin-2-amine], which IC50 is on record?
Answer: The IC50 was at most 100 nM.

Question: With `Cc1cn2cc(-c3cc4sc(C5CCNCC5)nc4cn3)ccc2n1` [Compound 77, 6-(2-methylimidazo[1,2-a]pyridin-6-yl)-2-(piperidin-4-yl)[1,3]thiazolo[4,5-c]pyridine] as the molecule, how does the IC50 read?
Answer: Its IC50 is 100 to 500 nM.

Question: For `Cn1cc2cc(-c3cc4sc(OC5CC(C)(C)NC(C)(C)C5)nc4cn3)cc(C#N)c2n1` [Compound 311, 2-methyl-5-{2-[(2,2,6,6-tetramethylpiperidin-4-yl)oxy][1,3]thiazolo[4,5-c]pyridin-6-yl}-2H-indazole-7-carbonitrile], which IC50 is on record?
Answer: Its IC50 is at most 100 nM.

Question: Which IC50 does the source give for `Cc1cn2nc(-c3cc(F)c4nc(OC5CC(C)(C)NC(C)(C)C5)sc4c3)cc(C)c2n1` [Compound 133, 6-{4-fluoro-2-[(2,2,6,6-tetramethylpiperidin-4-yl)oxy]-1,3-benzothiazol-6-yl}-2,8-dimethylimidazo[1,2-b]pyridazine] here?
Answer: The IC50 was at most 100 nM.

Question: For `Cc1cn2cc(-c3ccc4nc(N(C)C5CC(C)(C)NC(C)(C)C5)sc4c3)cc(C)c2n1` [Compound 33, 6-(2,8-dimethylimidazo[1,2-a]pyridin-6-yl)-N-methyl-N-(2,2,6,6-tetramethylpiperidin-4-yl)-1,3-benzothiazol-2-amine], which IC50 is on record?
Answer: Its IC50 is at most 100 nM.

Question: `Cc1cn2cc(-c3cc4sc(N(C)C5CC6(C)CCC(C)(C5)N6)nc4cn3)cc(C)c2n1` [Compound 299, N-[(1R,3s,5S)-1,5-dimethyl-8-azabicyclo[3.2.1]octan-3-yl]-6-(2,8-dimethylimidazo[1,2-a]pyridin-6-yl)-N-methyl[1,3]thiazolo[4,5-c]pyridin-2-amine] was tested. Which IC50 did it give?
Answer: The IC50 was at most 100 nM.

Question: `Cc1cn2cc(-c3cc(F)c4nc(OC5CCNCC5)sc4c3)cc(C)c2n1` [Compound 319, 6-(2,8-dimethylimidazo[1,2-a]pyridin-6-yl)-4-fluoro-2-[(piperidin-4-yl)oxy]-1,3-benzothiazole] was tested. Which IC50 did it give?
Answer: The IC50 was at most 100 nM.

Question: With `CN(c1nc2ncc(-c3cc(F)c4nn(C)cc4c3)nc2s1)C1CC(C)(C)NC(C)(C)C1` [Compound 150, 6-(7-fluoro-2-methyl-2H-indazol-5-yl)-N-methyl-N-(2,2,6,6-tetramethylpiperidin-4-yl)[1,3]thiazolo[4,5-b]pyrazin-2-amine] as the molecule, how does the IC50 read?
Answer: The IC50 was at most 100 nM.

Question: `CN(c1nc2cnc(-c3cc(C#N)c4nn(C)cc4c3)cc2s1)C1CC2CCCC(C1)N2` (stereo not shown) [Compound 252, 5-{2-[9-azabicyclo[3.3.1]non-3-yl(methyl)amino][1,3]thiazolo[4,5-c]pyridin-6-yl}-2-methyl-2H-indazole-7-carbonitrile] was tested. Which IC50 did it give?
Answer: Its IC50 is at most 100 nM.

Question: With `Cn1cc2cc(-c3ccc4nc(C5CCNCC5)sc4c3)ccc2n1` [Compound 2, 6-(2-methyl-2H-indazol-5-yl)-2-(piperidin-4-yl)-1,3-benzothiazole] as the molecule, how does the IC50 read?
Answer: Its IC50 is 100 to 500 nM.

Question: How did the IC50 turn out when `CCN(c1nc2cnc(-c3cc(C#N)c4nc(C)cn4c3)nc2s1)C1CC(C)(C)NC(C)(C)C1` [Compound 242, 6-{2-[ethyl(2,2,6,6-tetramethylpiperidin-4-yl)amino][1,3]thiazolo[5,4-d]pyrimidin-5-yl)-2-methylimidazo[1,2-a]pyridine-8-carbonitrile] was run?
Answer: The IC50 was 100 to 500 nM.

Question: How did the IC50 turn out when `Cc1cn2nc(-c3cnc4nc(N5CCNCC5)sc4n3)ccc2n1` [Compound 182, 6-(2-methylimidazo[1,2-b]pyridazin-6-yl)-2-(piperazin-1-yl)[1,3]thiazolo[4,5-b]pyrazine] was run?
Answer: Its IC50 is 500 to 1000 nM.

Question: How did the IC50 turn out when `Cc1cc(-c2ccc3nc(N(C)C4CCN(C)C(C)C4)sc3c2)cc2cn(C)nc12` (stereo not shown) [Compound 108, 6-(2,7-dimethyl-2H-indazol-5-yl)-N-(1,2-dimethylpiperidin-4-yl)-N-methyl-1,3-benzothiazol-2-amine] was run?
Answer: Its IC50 is 500 to 1000 nM.

Question: Which IC50 does the source give for `CN[C@H]1C[C@H](N(C)c2nc3nnc(-c4ccc(-c5cn[nH]c5)cc4O)cc3s2)C1` [Compound 376, 2-(6-{methyl[(1r,3r)-3-(methylamino)cyclobutyl]amino}[1,3]thiazolo[4,5-c]pyridazin-3-yl)-5-(1H-pyrazol-4-yl)phenol] here?
Answer: The IC50 was 100 to 500 nM.

Question: How did the IC50 turn out when `Cc1cn2nc(-c3cc(F)c4nc(C5CCNCC5)sc4c3)cc(Oc3ccccc3)c2n1` [Compound 195, 6-[4-fluoro-2-(piperidin-4-yl)-1,3-benzothiazol-6-yl]-2-methyl-8-phenoxyimidazo[1,2-b]pyridazine] was run?
Answer: Its IC50 is at most 100 nM.

Question: `CN(c1nc2c(F)cc(-c3ccc4nn(C)cc4n3)cc2s1)C1CC2CCC(C1)N2` (stereo not drawn) [Compound 237, N-[(3-exo)-8-azabicyclo[3.2.1]oct-3-yl]-4-fluoro-N-methyl-6-(2-methyl-2H-pyrazolo[4,3-b]pyridin-5-yl)-1,3-benzothiazol-2-amine] was tested. Which IC50 did it give?
Answer: The IC50 was 100 to 500 nM.

Question: `CN(c1nc2cnc(-c3ccc(-c4cn[nH]c4)cc3O)nc2s1)C1CC(C)(C)NC(C)(C)C1` [Compound 142, 2-{2-[methyl(2,2,6,6-tetramethylpiperidin-4-yl)amino][1,3]thiazolo[5,4-d]pyrimidin-5-yl}-5-(1H-pyrazol-4-yl)phenol] was tested. Which IC50 did it give?
Answer: The IC50 was 100 to 500 nM.

Question: For `CN(c1nc2ccc(-c3cc(C#N)c4nn(C)cc4c3)nc2s1)C1CC2CCCC(C1)N2` (stereo not drawn) [Compound 281, 5-{2-[(3-exo)-9-azabicyclo[3.3.1]non-3-yl(methyl)amino][1,3]thiazolo[5,4-b]pyridin-5-yl}-2-methyl-2H-indazole-7-carbonitrile], which IC50 is on record?
Answer: The IC50 was at most 100 nM.

Question: With `CCc1cc(-c2cc3sc(C4CCNCC4)nc3cn2)cc2cn(C)nc12` [Compound 75, 6-(7-ethyl-2-methyl-2H-indazol-5-yl)-2-(piperidin-4-yl)[1,3]thiazolo[4,5-c]pyridine] as the molecule, how does the IC50 read?
Answer: The IC50 was 100 to 500 nM.
